Read-outs that look alike come from different tables or passages of the source.
Key:
edema = test: Anti-inflammatory activity: edema inhibition (method of Winter, Risley and Nuss); assay type: in vivo
[1] = as above; assay type: in vivo; conditions: in vivo; LD50 / anti-inflammatory ED50; read-out: anti-inflammatory ED50 times lower than LD50
[2] = Analgesic activity (test by Randall and Salitto); assay type: in vivo
Method: Int. Pharmacodyn 151, 409 (1957). Doses of 200, 300 and 500 mg/Kg. cause 1.43: 1.77 and 2.09 effects over controls.

[3] = Antithermic (antipyretic) activity: yeast extract-induced temperature rise in rabbits; assay type: in vivo, rabbit
Method: Antithermic activity was determined in rabbits, adjusting an endovenous dose of yeast extract to achieve a + 1.7° C rise over the basal temperature of the animal. Three hours after injecting the pyrogenic agent, 200 mg/Kg of the product were administered interperitoneally.

rat [4] = conditions: in vivo, po
stomach or intestine [5] = conditions: rat, in vivo, 500 mg/kg
rat [6] = test: Toxicity test by oral administration in a rat (LD50, LD10)
[7] = as above; conditions: rat, in vivo, po
stomach or intestine [8] = test: Gastrointestinal toxicity: ulcers and hemorrhagic content after one dose of 500 mg/Kg in rats; conditions: one dose of 500 mg/Kg, 10-rat groups
[9] = comparison with aspirin, in words

COc1ccc2c(c1)c(CC(=O)O)c(C)n2C(=O)c1ccc(Cl)cc1 [indometacine, reference compound]
anti-inflammatory ED50 relative to toxic range (edema; in words): very close to the toxic range

CC(=O)Nc1ccc(OCCOC(=O)c2ccccc2OC(C)=O)cc1 [Compound (I), o-acetoxy benzoate ester of 2(p-acetamido-phenyloxy)-ethyl alcohol]
selectivity ratio [1]: 10
anti-inflammatory activity relative to aspirin (edema; [9]): as active as aspirin
anti-inflammatory activity: times less active than indometacine (edema; comparison with indometacine): 33 times
inhibition at 200 mg/kg (edema; dose 200 mg/Kg): 23%
inhibition at 400 mg/kg (edema; dose 400 mg/Kg): 31%
analgesic activity relative to aspirin [2, 9]: equipotential with respect to aspirin
analgesic effect over controls ([2]; dose 200 mg/Kg): 1.43
analgesic effect over controls ([2]; dose 300 mg/Kg): 1.77
analgesic effect over controls ([2]; dose 500 mg/Kg): 2.09
animal's temperature after administration, for two consecutive hours ([3]; 200 mg/Kg interperitoneally, three hours after pyrogenic agent (+1.7° C rise)): decreased to its basal values
duration of antipyretic effect relative to aspirin and N-acetyl-p-aminophenol ([3]; in words): longer lasting effects
LD10 (maximum dose possible to administer) (rat [4]): 7,000 mg/Kg
gastrointestinal disorders, comparison with aspirin (stomach or intestine [5]): clear differences appear in favor of compound (I) over aspirin
ulcers of the stomach or intestine (stomach or intestine [5]): no ulcers
toxicity factor relative to aspirin (rat [6]; factor in favor of product (I) over aspirin): 7
toxicity relative to aspirin (rat [6]; oral, rat, in words): less toxic than aspirin

CC(=O)Oc1ccccc1C(=O)O [aspirin]
LD50 [7]: 978 mg/kg
rats whose stomachs revealed hemorrhagic content (stomach or intestine [8]): 60%
ulcers of the stomach or intestine (stomach or intestine [8]): no ulcers

From patent publication US4014921A, “O-Acetoxy benzoate ester of 2(p-acetamido-phenyloxy)ethyl alcohol” (Alter, S.A., priority 1975, dated 1977)
